Test results published in patent publication US10653685B2, “Pharmaceutical compositions and methods for the treatment of hypoxia-related diseases” (priority 2015, dated 2020).

Columns and labels:
rat primary heart cells [1] = assay: LDH released by rat primary heart cells under hypoxia; assay type: cell-based; settings: hypoxia 3 hours
Experimental: (§1) Sprague Dawley rat hearts (1-2 days old) were sterilely removed and bathed three times in Ca^++ and Mg^++—free PBS to remove excess blood cells. The hearts were minced to small fragments and then agitated in a proteolytic enzyme-RDB solution (Life Science research, Inst., Nes Ziona, Israel) prepared from a fig tree extract as described previously (Brik et al., Basic Res. Cardiol. 85:237-246, 1990), Shneyvays et al., J Mol Cell Cardiol. 33:1249-1261, 2001). The RDB-solution was then diluted 1:200 in PBS at 25° C. for a few cycles of 10 min each. The supernatant suspension containing dissociated cells, to which medium containing 10% horse serum was added, was centrifuged at 500 g for 5 min. After centrifugation, the supernatant phase was discarded, and cells were re-suspended in Dulbecco's modified Eagle medium supplemented with 10% heat-inactivated horse serum and 0.5% chick embryo extract. Cell suspensions were diluted to 1×10^6 cells/ml, and […] samples were placed in 24 well plates (4 plates) collagen/gelatin coated plastic culture dishes. […] The day after, Cells were washed to remove dead cells, and growth medium was replaced, as well as every 2 days and before experiment initiation, this time with glucose-free PBS. The experiments were then performed in vitro on these cardiomyocyte cultures after 5 days following the day of procedure beginning. Right before Hypoxia experiments, cultures wells were incubated in a humidified atmosphere incubator of 5% CO2 and 95% air at 37° C. for 30 minute steady state.
(§2) Approximately 3×10^5 cardiomyocytes/well from neonatal rat hearts were cultured with glucose-free PBS and exposed to hypoxia (oxygen and glucose deprivation) for 180 min. using a procedure essentially as described by O. Golan et al. (Biochemical pharmacology, 81 (2011), pp. 1219-1227)
(§3) In brief, Hypoxia was performed in a closed chamber by replacement of air with 100% Argon. During hypoxia Oxygen levels in the N2 atmosphere was below 1%. And after 180 min. of hypoxia, the pO2 in the PBS was <0.4 Torr. Hypoxic stress injury was determined based on the activity of lactate dehydrogenase (LDH) and creatine kinase (CK) released from the cells, at the end of 3 hr. hypoxic phase, and consequently after additional 2 hr. of reoxygenation.
(§4) For both LDH and CK measurements, 25 μL aliquots of each well incubated for 180 min under hypoxia, were transfer to clean 24 wells trays, which were placed within the automatic spectrophotometer and the product of the enzyme activity was measured through a wavelength of 340 nm at 30° C., under shaking. Results were expressed relatively to the control.
Lactate dehydrogenase (LDH) activity was determined within the cardiac cell medium (PBS) using LDH-L kit (Thermo Trace, Melbourne, Australia). […]

rat primary heart cells [2] = assay: CK released by rat primary heart cells under hypoxia; assay type: cell-based; settings: hypoxia 3 hours
Experimental: as §1, §2, §3
as §4, with “Results were expressed relatively to the control.” left out
Creatine Kinase (CK) activity was determined within the cardiac cell medium (PBS) using CK-NAC Reagent (Creatine kinase, activated by N-acetyl cysteine) from Thermo Fisher Scientific Inc. Middletown, Va. […]

heart cells = settings: maximum protection, WO 2013/003445; cited from earlier work

With `c1ccc(CN(CCN(Cc2ccccn2)Cc2ccccn2)Cc2ccccn2)nc1` [TPEN, N,N,N′,N′-tetrakis-(2-pyridylmethyl)-ethylenediamine] the “LDH Reduction” value (rat primary heart cells [1]; sodium alginate 0, TPEN 0.3 μM) was 39.5%, the “Mean (LDH released from rat heart cells)” value (rat primary heart cells [1]; sodium alginate 0, TPEN 0.3 μM) was 0.0409 and the “LDH Reduction” value (rat primary heart cells [1]; sodium alginate 0, TPEN 1 μM) was 10.0%. For the same molecule, the “Mean (LDH released from rat heart cells)” value (rat primary heart cells [1]; sodium alginate 0, TPEN 1 μM) was 0.0647, the “CK Reduction” value (rat primary heart cells [2]; sodium alginate 0, TPEN 0.3 μM) was 46.6% and the “Mean (CK released from rat heart cells)” value (rat primary heart cells [2]; sodium alginate 0, TPEN 0.3 μM) was 0.0411. For the same molecule, the “CK Reduction” value (rat primary heart cells [2]; sodium alginate 0, TPEN 1 μM) was 14.3%, the “Mean (CK released from rat heart cells)” value (rat primary heart cells [2]; sodium alginate 0, TPEN 1 μM) was 0.0643 and the “protection from hypoxia stress injury” value (heart cells) was ≤ 70%.
